From patent EP4745135A1 (Gluetacs Therapeutics (Shanghai) Co., Ltd., priority 2023, dated 2025)

How the values were obtained:
[1] = test system: GSPT1; experiment: Western blot, degradation of substrate protein in hPBMCs; type: cell-based, Human
[2] = test system: Human T cell acute lymphoblastic leukemia cell (CCRF-CEM); experiment: Tumor cell proliferation inhibition (CellTiter-Meiluncell luminescent cell viability assay); details: 96 h; for inhibition at 0.01 µM: read-out: Inhibition Rate at 10 nM (%); for inhibition at 0.5 µM: read-out: Inhibition Rate at 500 nM (%)
Procedure: (§1) The tumor cells used herein were cultured in a cell culture medium listed in table 2 at 37°C in an incubator with 5% CO2. Prior to experimentation, all cell lines used were correctly identified by STR profiling, and tested negative for mycoplasma contamination using a mycoplasma detection kit through routine screenings.
(§2) The IC50 values of the compounds of the present disclosure (including the compounds in Table 1 and Examples) were determined using the CellTiter-Meiluncell Luminescent Cell Viability Assay Kit from Dalian Meilun Biotech Co., Ltd. The detailed procedure is as follows: Tumor cells were seeded in 96-well cell culture plates at the densities specified in Table 3. On the following day, the test compounds of the present disclosure were subjected to serial dilution. The dilution can be performed according to one of the following two methods: • (1) The first dilution method: The test compounds of the present disclosure (including the compounds in Table 1 and Examples) were subjected to 5-fold serial dilutions starting from a highest concentration of 2000 µM, resulting in a total of 9 concentrations from high to low (2000, 400, 80, 16, 3.2, 0.64, 0.128, 0.0256, 0.00512 µM). Subsequently, 0.5 µL of the test compound dilution was transferred into the 96-well plate containing the cells, with each well containing 100 µL of cell culture medium. […] Into the 96-well plate, the diluted test compounds and corresponding detection reagents were added, resulting in final test compound concentrations of 500 nM and 10 nM, respectively. The experimental procedure is described below using the diluted 2 µM test compound as an example.
(§3) 0.5 µL of the aforementioned diluted compound of the present disclosure (including the compounds in Table 1 and Examples) was added to the seeded cells in 100 µL of medium, yielding a final test compound concentration of 10 nM. After the cells were treated with the compounds of the present disclosure for a specified period, the cell viability assay reagent was added to the culture medium according to the kit's instructions to determine cell viability. […] All controls were treated using the same procedure as the compounds of the present disclosure. The growth inhibition curves for the compounds of the present disclosure were plotted using Prism GraphPad software, and the IC50 values were calculated therefrom.

[3] = test system: Human multiple myeloma peripheral blood B lymphocyte cell (RPMI-8226); experiment: as above; details: RPMI-8226, 96 h; for inhibition at 0.01 µM: read-out: Inhibition Rate at 10 nM (%); for inhibition at 0.5 µM: read-out: Inhibition Rate at 500 nM (%)
Procedure: as §1, §2, §3

[4] = test system: Human myeloid monocytic leukemia cell (MV-4-11); experiment: as above; details: MV4-11, 96 h; for inhibition at 0.01 µM: read-out: Inhibition Rate at 10 nM (%); for inhibition at 0.5 µM: read-out: Inhibition Rate at 500 nM (%)
[5] = test system: Human acute myeloid leukemia cell line: Kasumi-1; experiment: as above; details: Kasumi 1, 96 h; for inhibition at 0.01 µM: read-out: Inhibition Rate at 10 nM (%); for inhibition at 0.5 µM: read-out: Inhibition Rate at 500 nM (%)
[6] = test system: Human breast cancer cell (MCF-7); experiment: as above; details: MCF7, 96 h; for inhibition at 0.01 µM: read-out: Inhibition Rate at 10 nM (%); for inhibition at 0.5 µM: read-out: Inhibition Rate at 500 nM (%)
Procedure: as §1, §2, §3

[7] = molecular target: T1, human Cereblon WT GST-tagged protein (Homo sapiens, UniProt Q96SW2); experiment: CRBN-binding affinity, HTRF (CEREBLON BINDING kit); details: for inhibition at 0.5 µM: read-out: Inhibition Rate at 0.5 µM (%); for inhibition at 2 µM: read-out: Inhibition Rate at 2 µM (%)
T1 construct: purchased CISBIO 64BDCRBNPEH
T1 sequence (Q96SW2 whole entry): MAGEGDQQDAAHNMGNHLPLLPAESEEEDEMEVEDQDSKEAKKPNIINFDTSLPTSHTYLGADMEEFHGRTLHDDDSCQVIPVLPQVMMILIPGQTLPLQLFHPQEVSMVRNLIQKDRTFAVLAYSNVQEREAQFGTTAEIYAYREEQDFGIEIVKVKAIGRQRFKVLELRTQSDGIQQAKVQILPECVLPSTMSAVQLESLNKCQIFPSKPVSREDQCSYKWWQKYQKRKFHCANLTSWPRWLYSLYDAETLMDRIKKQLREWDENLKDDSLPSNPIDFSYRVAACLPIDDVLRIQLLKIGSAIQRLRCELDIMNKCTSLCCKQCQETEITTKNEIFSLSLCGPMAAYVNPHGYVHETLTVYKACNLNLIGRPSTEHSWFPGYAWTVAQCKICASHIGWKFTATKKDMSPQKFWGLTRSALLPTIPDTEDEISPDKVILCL

[8] = test system: Human acute T lymphocytic leukemia cell (Molt4); experiment: Tumor cell proliferation inhibition (CellTiter-Meiluncell luminescent cell viability assay); details: MOLT-4, 96 h; for inhibition at 0.01 µM: read-out: Inhibition Rate at 10 nM (%); for inhibition at 0.5 µM: read-out: Inhibition Rate at 500 nM (%)
[9] = test system: Human T lymphocytic leukemia cell line: Jurkat; experiment: as above; details: 96 h; for inhibition at 0.01 µM: read-out: Inhibition Rate at 10 nM (%); for inhibition at 0.5 µM: read-out: Inhibition Rate at 500 nM (%)
[10] = test system: Human multiple myeloma cell (MM.1S); experiment: as above; details: Homo sapiens, MM1.S, 96 h; for inhibition at 0.01 µM: read-out: Inhibition Rate at 10 nM (%); for inhibition at 0.5 µM: read-out: Inhibition Rate at 500 nM (%)
[11] = molecular target: T2, IKZF2 (Homo sapiens, UniProt Q96SW2+Q9UKS7); experiment: Western blot, degradation of substrate protein in hPBMCs; type: cell-based
T2 construct: effects of the compounds of the present disclosure on the expression of target proteins in cells; endogenous in cells; host or cells: human PBMCs (Milecell Biotechnologies)
T2 sequence (Q9UKS7 whole entry): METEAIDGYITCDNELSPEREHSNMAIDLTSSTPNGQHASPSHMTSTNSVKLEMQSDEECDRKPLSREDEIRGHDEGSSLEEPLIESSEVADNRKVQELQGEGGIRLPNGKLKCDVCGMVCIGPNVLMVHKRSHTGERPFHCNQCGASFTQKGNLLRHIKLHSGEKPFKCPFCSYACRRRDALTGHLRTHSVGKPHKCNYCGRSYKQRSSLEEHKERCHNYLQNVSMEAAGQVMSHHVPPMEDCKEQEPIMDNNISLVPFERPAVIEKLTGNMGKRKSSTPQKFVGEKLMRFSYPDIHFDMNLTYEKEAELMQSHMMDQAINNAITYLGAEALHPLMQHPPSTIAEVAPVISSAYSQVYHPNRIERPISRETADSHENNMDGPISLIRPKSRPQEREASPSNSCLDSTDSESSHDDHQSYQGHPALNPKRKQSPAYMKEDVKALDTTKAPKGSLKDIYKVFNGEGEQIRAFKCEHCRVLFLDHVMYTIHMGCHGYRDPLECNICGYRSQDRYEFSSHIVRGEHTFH
T2 sequence (Q96SW2 whole entry): as the sequence (Q96SW2 whole entry) above
T2 sequence (Q16531 whole entry partner): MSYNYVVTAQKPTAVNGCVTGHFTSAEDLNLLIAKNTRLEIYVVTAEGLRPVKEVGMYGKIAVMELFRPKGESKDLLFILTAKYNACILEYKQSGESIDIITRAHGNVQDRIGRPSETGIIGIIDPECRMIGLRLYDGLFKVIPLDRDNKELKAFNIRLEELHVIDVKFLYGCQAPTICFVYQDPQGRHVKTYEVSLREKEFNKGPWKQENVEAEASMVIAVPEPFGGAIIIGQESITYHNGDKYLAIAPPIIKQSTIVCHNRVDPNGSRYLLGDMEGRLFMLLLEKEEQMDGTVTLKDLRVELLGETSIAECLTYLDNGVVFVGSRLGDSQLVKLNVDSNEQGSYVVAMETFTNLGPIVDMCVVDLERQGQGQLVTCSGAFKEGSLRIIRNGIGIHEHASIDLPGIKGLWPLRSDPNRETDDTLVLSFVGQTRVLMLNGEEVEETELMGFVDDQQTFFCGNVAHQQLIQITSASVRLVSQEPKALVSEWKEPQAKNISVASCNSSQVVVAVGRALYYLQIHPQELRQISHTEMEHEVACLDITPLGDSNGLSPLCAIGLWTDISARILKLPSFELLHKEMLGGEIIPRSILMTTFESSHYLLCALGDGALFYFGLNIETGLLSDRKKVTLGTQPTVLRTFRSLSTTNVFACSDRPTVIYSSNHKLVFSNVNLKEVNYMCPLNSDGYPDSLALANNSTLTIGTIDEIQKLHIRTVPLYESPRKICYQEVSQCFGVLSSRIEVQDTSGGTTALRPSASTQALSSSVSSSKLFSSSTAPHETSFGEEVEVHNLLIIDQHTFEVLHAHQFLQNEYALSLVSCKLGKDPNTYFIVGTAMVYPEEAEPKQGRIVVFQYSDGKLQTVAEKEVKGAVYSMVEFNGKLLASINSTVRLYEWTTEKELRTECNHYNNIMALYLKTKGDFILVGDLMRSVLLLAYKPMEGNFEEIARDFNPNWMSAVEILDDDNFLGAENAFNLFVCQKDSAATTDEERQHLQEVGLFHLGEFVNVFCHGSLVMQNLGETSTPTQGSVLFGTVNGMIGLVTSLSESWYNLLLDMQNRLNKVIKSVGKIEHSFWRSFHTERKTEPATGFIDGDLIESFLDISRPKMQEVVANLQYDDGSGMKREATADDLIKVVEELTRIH

[12] = molecular target: T3, IKZF3 (Homo sapiens, UniProt Q96SW2+Q9UKT9); experiment: as above; type: cell-based
T3 construct: effects of the compounds of the present disclosure on the expression of target proteins in cells; endogenous in cells; host or cells: human PBMCs (Milecell Biotechnologies)
T3 sequence (Q9UKT9 whole entry): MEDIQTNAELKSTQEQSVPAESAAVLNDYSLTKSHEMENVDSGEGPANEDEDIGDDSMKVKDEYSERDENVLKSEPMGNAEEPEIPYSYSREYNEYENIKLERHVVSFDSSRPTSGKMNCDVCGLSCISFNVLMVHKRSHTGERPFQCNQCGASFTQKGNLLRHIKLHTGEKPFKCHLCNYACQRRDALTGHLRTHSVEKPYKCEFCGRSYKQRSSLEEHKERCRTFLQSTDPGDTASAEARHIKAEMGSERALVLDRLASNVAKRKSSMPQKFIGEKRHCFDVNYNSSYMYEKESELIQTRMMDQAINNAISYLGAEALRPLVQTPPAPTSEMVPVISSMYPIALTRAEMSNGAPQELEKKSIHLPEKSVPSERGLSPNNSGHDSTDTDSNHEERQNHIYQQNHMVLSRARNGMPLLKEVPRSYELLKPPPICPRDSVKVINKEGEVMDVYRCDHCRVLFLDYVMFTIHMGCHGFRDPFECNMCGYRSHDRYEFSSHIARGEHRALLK
T3 sequence (Q96SW2 whole entry): as the sequence (Q96SW2 whole entry) above
T3 sequence (Q16531 whole entry partner): as the sequence (Q16531 whole entry partner) above

[13] = molecular target: T4, WEE1 (Homo sapiens, UniProt P30291+Q96SW2); experiment: as above; type: cell-based
T4 construct: effects of the compounds of the present disclosure on the expression of target proteins in cells; endogenous in cells; host or cells: human PBMCs (Milecell Biotechnologies)
T4 sequence (P30291 whole entry): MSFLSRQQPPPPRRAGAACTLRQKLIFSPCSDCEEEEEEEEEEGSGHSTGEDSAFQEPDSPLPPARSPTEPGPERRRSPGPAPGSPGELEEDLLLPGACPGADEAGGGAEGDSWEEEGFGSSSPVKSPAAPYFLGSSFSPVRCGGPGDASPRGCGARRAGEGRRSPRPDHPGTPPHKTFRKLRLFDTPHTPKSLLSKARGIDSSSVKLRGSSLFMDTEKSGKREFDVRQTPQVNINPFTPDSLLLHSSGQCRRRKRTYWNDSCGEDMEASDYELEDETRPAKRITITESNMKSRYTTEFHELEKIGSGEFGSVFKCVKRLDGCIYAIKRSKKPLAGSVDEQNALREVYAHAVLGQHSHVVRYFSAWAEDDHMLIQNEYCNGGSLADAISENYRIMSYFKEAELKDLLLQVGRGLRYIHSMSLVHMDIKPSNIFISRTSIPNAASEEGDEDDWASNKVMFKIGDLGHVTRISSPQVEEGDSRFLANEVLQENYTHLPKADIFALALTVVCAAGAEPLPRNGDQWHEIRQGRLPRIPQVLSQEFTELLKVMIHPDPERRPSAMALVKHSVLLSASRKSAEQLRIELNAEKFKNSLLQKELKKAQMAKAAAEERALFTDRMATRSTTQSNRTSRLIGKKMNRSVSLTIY
T4 sequence (Q96SW2 whole entry): as the sequence (Q96SW2 whole entry) above
T4 sequence (Q16531 whole entry partner): as the sequence (Q16531 whole entry partner) above

[14] = molecular target: T5, CK1α (Homo sapiens, UniProt P48729+Q96SW2); experiment: as above; type: cell-based
T5 construct: effects of the compounds of the present disclosure on the expression of target proteins in cells; endogenous in cells; host or cells: human PBMCs (Milecell Biotechnologies)
T5 sequence (P48729 whole entry): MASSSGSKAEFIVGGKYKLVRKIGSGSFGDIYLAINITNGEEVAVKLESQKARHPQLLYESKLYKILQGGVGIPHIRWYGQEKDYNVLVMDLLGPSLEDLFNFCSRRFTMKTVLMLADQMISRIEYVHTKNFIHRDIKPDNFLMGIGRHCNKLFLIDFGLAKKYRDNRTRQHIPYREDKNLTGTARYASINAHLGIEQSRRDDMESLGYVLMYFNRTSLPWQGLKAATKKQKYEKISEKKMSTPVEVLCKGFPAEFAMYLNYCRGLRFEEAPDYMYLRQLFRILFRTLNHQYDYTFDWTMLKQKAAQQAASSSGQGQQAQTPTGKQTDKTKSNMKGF
T5 sequence (Q96SW2 whole entry): as the sequence (Q96SW2 whole entry) above
T5 sequence (Q16531 whole entry partner): as the sequence (Q16531 whole entry partner) above

[15] = molecular target: T6, IKZF1 (Homo sapiens, UniProt Q13422+Q96SW2); experiment: as above; type: cell-based
T6 construct: effects of the compounds of the present disclosure on the expression of target proteins in cells; endogenous in cells; host or cells: human PBMCs (Milecell Biotechnologies)
T6 sequence (Q13422 whole entry): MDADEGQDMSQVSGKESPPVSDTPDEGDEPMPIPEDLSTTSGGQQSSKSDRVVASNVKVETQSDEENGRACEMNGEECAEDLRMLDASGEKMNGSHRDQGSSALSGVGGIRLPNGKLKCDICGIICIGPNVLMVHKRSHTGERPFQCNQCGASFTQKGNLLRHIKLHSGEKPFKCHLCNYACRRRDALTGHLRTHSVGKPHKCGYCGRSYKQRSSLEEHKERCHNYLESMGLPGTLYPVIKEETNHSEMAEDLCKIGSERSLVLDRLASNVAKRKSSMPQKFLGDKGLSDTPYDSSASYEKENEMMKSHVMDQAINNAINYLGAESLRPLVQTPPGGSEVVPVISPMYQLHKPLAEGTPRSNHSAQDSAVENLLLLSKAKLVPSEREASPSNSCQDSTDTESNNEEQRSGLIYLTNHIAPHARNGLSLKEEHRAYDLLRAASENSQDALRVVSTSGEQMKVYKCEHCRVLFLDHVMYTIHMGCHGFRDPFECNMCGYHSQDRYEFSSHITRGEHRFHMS
T6 sequence (Q96SW2 whole entry): as the sequence (Q96SW2 whole entry) above
T6 sequence (Q16531 whole entry partner): as the sequence (Q16531 whole entry partner) above

[16] = test system: Human malignant melanoma cell line: A375; experiment: Tumor cell proliferation inhibition (CellTiter-Meiluncell luminescent cell viability assay); details: A-375, 96 h
Procedure: as §1, §2, §3

[17] = Western blot, 24 hours of compound treatment, compounds tested at 50 nM and 500 nM (concentration for the table not stated)
[18] = 24 hours treatment, compounds at 50 nM and 500 nM (concentration behind the class not stated)

Row | Compound | inhibition at 0.01 µM [2] | inhibition at 0.5 µM [2] | inhibition at 0.01 µM [3] | inhibition at 0.5 µM [3] | inhibition at 0.01 µM [4] | inhibition at 0.5 µM [4] | inhibition at 0.01 µM [5] | inhibition at 0.5 µM [5] | inhibition at 0.01 µM [6] | inhibition at 0.5 µM [6] | inhibition at 0.5 µM [7] | inhibition at 2 µM [7] | inhibition at 0.01 µM [8] | inhibition at 0.5 µM [8] | inhibition at 0.01 µM [9] | inhibition at 0.5 µM [9] | inhibition at 0.01 µM [10] | inhibition at 0.5 µM [10] | GSPT1 substrate protein remaining % [1, 18] | IKZF2 substrate protein remaining % [11, 18] | other results
1 | O=C1CCC(N2Cc3cc(CN4CC=C(c5cccc(F)c5Cl)CC4)ccc3C2=S)C(=O)N1 (stereo not shown) [GT-08206, 3-(5-((4-(2-chloro-3-fluorophenyl)-3,6-dihydropyridin-1(2H)-yl)methyl)-1-thioxoisoindolin-2-yl)piperidine-2,6-dione] | 80 to 100% | 80 to 100% | 80 to 100% | 80 to 100% | 80 to 100% | 80 to 100% | 60 to 70% | 80 to 100% | 0 to 5% | 80 to 100% | 40 to 53% | 80 to 100% | 70 to 80% | 80 to 100% | 50 to 60% | 80 to 100% | 50 to 60% | 80 to 100% | – | – | GSPT1 substrate protein remaining % [1, 17]: A (0% ≤ substrate protein remaining % ≤ 80%); IKZF2 substrate protein remaining % [11, 17]: A (0% ≤ substrate protein remaining % ≤ 80%); IKZF3 substrate protein remaining % [12, 17]: A (0% ≤ substrate protein remaining % ≤ 80%); Wee1 substrate protein remaining % [13, 17]: A (0% ≤ substrate protein remaining % ≤ 80%); CK1α substrate protein remaining % [14, 17]: A (0% ≤ substrate protein remaining % ≤ 80%); IKZF 1 substrate protein remaining % [15, 17]: A (0% ≤ substrate protein remaining % ≤ 80%)
2 | Cc1cc(C2=CCN(Cc3ccc4c(c3)CN(C3CCC(=O)NC3=O)C4=S)CC2)cs1 (stereo not shown) [GT-08327, 3-(5-((4-(5-methylthiophen-3-yl)-3,6-dihydropyridin-1(2H)-yl)methyl)-1-thioxoisoindolin-2-yl)piperidine-2,6-dione] | 30 to 40% | 80 to 100% | 10 to 20% | 80 to 100% | 40 to 60% | 80 to 100% | 30 to 40% | 80 to 100% | 0 to 5% | 70 to 80% | 53 to 60% | 80 to 100% | 10 to 20% | 80 to 100% | 20 to 30% | 80 to 100% | 40 to 50% | 80 to 100% | A (0% ≤ substrate protein remaining % ≤ 80%) | A (0% ≤ substrate protein remaining % ≤ 80%) | IKZF3 substrate protein remaining % [12, 18]: A (0% ≤ substrate protein remaining % ≤ 80%); Wee1 substrate protein remaining % [13, 18]: A (0% ≤ substrate protein remaining % ≤ 80%); CK1α substrate protein remaining % [14, 18]: A (0% ≤ substrate protein remaining % ≤ 80%); IKZF 1 substrate protein remaining % [15, 18]: A (0% ≤ substrate protein remaining % ≤ 80%)
3 | O=C1CCC(N2Cc3cc(CN4CCC(N(c5ccccc5)c5ccccn5)CC4)ccc3C2=S)C(=O)N1 (stereo not shown) [GT-07846, 3-(5-((4-(phenyl(pyridin-2-yl)amino)piperidin-1-yl)methyl)-1-thioxoisoindolin-2-yl)piperidine-2,6-dione] | 40 to 50% | 80 to 100% | 20 to 30% | 60 to 70% | 10 to 18% | 80 to 100% | 40 to 50% | 80 to 100% | – | 40 to 50% | 53 to 60% | 80 to 100% | 70 to 80% | 80 to 100% | 30 to 40% | 80 to 100% | 60 to 70% | 80 to 100% | – | – | GSPT1 substrate protein remaining % [1, 17]: A (0% ≤ substrate protein remaining % ≤ 80%); IKZF2 substrate protein remaining % [11, 17]: A (0% ≤ substrate protein remaining % ≤ 80%); IKZF3 substrate protein remaining % [12, 17]: A (0% ≤ substrate protein remaining % ≤ 80%); Wee1 substrate protein remaining % [13, 17]: A (0% ≤ substrate protein remaining % ≤ 80%); CK1α substrate protein remaining % [14, 17]: B (80%< substrate protein remaining %≤ 100%); IKZF 1 substrate protein remaining % [15, 17]: A (0% ≤ substrate protein remaining % ≤ 80%)
4 | O=C1CCC(N2Cc3cc(CN4CCN(c5nc(Cl)nc6ccsc56)CC4)ccc3C2=S)C(=O)N1 (stereo not shown) [GT-09331, 3-(5-((4-(2-chlorothieno[3,2-d]pyrimidin-4-yl)piperazin-1-yl)methyl)-1-thioxoisoindolin-2-yl)piperidine-2,6-dione] | – | – | – | – | – | – | – | – | 20 to 30% | 40 to 50% | 80 to 100% | 80 to 100% | – | – | – | – | – | – | A (0% ≤ substrate protein remaining % ≤ 80%) | B (80%< substrate protein remaining %≤ 100%) | inhibition at 0.01 µM ([16]; read-out: Inhibition Rate at 10 nM (%)): 30 to 40%; inhibition at 0.5 µM ([16]; read-out: Inhibition Rate at 500 nM (%)): 50 to 60%; IKZF3 substrate protein remaining % [12, 18]: B (80%< substrate protein remaining %≤ 100%); Wee1 substrate protein remaining % [13, 18]: B (80%< substrate protein remaining %≤ 100%); CK1α substrate protein remaining % [14, 18]: B (80%< substrate protein remaining %≤ 100%); IKZF 1 substrate protein remaining % [15, 18]: B (80%< substrate protein remaining %≤ 100%)
5 | O=C1CCC(N2Cc3cc(CN4CC=C(c5cccs5)CC4)ccc3C2=S)C(=O)N1 (stereo not shown) [GT-08171, 3-(5-((4-(thiophen-2-yl)-3,6-dihydropyridin-1(2H)-yl)methyl)-1-thioxoisoindolin-2-yl)piperidine-2,6-dione] | 70 to 80% | 80 to 100% | 20 to 30% | 80 to 100% | 60 to 80% | 80 to 100% | 30 to 40% | 80 to 100% | 20 to 30% | 70 to 80% | 60 to 80% | 80 to 100% | 80 to 100% | 80 to 100% | 40 to 50% | 80 to 100% | 50 to 60% | 80 to 100% | A (0% ≤ substrate protein remaining % ≤ 80%) | A (0% ≤ substrate protein remaining % ≤ 80%) | IKZF3 substrate protein remaining % [12, 18]: A (0% ≤ substrate protein remaining % ≤ 80%); Wee1 substrate protein remaining % [13, 18]: A (0% ≤ substrate protein remaining % ≤ 80%); CK1α substrate protein remaining % [14, 18]: A (0% ≤ substrate protein remaining % ≤ 80%); IKZF 1 substrate protein remaining % [15, 18]: A (0% ≤ substrate protein remaining % ≤ 80%)
6 | O=C1CCC(N2Cc3cc(CN4CCN(Cc5ccccc5-c5ccc(Cl)cc5)CC4)ccc3C2=S)C(=O)N1 (stereo not shown) [GT-08166, 3-(5-((4-((4'-chloro-[1,1'-biphenyl]-2-yl)methyl)piperazin-1-yl)methyl)-1-thioxoisoindolin-2-yl)piperidine-2,6-dione] | 10 to 20% | 80 to 100% | 10 to 20% | 60 to 70% | 30 to 40% | 80 to 100% | 10 to 20% | 80 to 100% | – | 60 to 70% | 20 to 30% | 60 to 80% | 10 to 20% | 80 to 100% | 10 to 20% | 80 to 100% | 40 to 50% | 80 to 100% | A (0% ≤ substrate protein remaining % ≤ 80%) | A (0% ≤ substrate protein remaining % ≤ 80%) | IKZF3 substrate protein remaining % [12, 18]: A (0% ≤ substrate protein remaining % ≤ 80%); Wee1 substrate protein remaining % [13, 18]: A (0% ≤ substrate protein remaining % ≤ 80%); CK1α substrate protein remaining % [14, 18]: B (80%< substrate protein remaining %≤ 100%); IKZF 1 substrate protein remaining % [15, 18]: B (80%< substrate protein remaining %≤ 100%)
